Experimental data taken from patent US4230708A (priority 1977, dated 1980).
Converted amounts (≈) assume the structure as drawn. Like-named read-outs stand apart in the source and are kept apart here.

Key:
[1] = test system: VSV, vaccinia and herpes simplex-1 (KOS); type: cell-based, vaccinia and herpes simplex-1 (KOS) viruses; conditions: for Antiviral activity of congeners: at 100 μg/ml (the highest level tested), PRK cells; for Antiviral activity of enantiomers and racemate: VSV/PRK, vaccinia/PRK, herpes simplex-1 (KOS)/PRK
Stability = type: physicochemical
Vaccinia = experiment: microbe, parasite or virus in culture; type: cell-based; conditions: Orthopoxvirus vaccinia, read-out: ID50
Vesicular stomatitis = experiment: microbe, parasite or virus in culture; type: cell-based; conditions: read-out: ID50
Polio-1 = experiment: microbe, parasite or virus in culture; type: cell-based, polio virus type 1; conditions: read-out: ID50
Coxsackie B-4 = type: cell-based, Coxsackie B-4 virus; conditions: HeLa cells; 100 CCID50; read-out: ID50 (the source's name)
Method: The antiviral activity of (S)-DHPA was explored in a variety of cell cultures and with a variety of DNA and RNA viruses such as listed in Table 1. The cells of each cell culture were inoculated with a certain virus in a dose of about 100 CCID50, that is about 100 times the dose needed to infect 50% of the cells. One hour after inoculation, (S)-DHPA was added in varying doses from zero to 40 μg/ml and sometimes to more than 200 μg/ml. For each virus-cell system, the ID50 of (S)-DHPA, that is the dose of (S)-DHPA needed to suppress the cytopathic effect of the virus by 50%, was determined. This cytopathic effect (CPE) was measured in the untreated virus-infected cell cultures [(S)-DHPA dose 0] and recorded as soon as it reached completion (according to the method described by L. J. Rosenthal and I. L. Shechmaister, in "Tissue Culture", page 510, Academic Press, New York, 1973).

Measles = experiment: microbe, parasite or virus in culture; type: cell-based; conditions: Measles morbillivirus, Vero; read-out: ID50 (the source's name)
Sindbis = experiment: microbe, parasite or virus in culture; type: cell-based; conditions: BHK, read-out: ID50 (the source's name)
[2] = test system: vesicular stomatitis virus; experiment: microbe, parasite or virus in culture; type: cell-based; conditions: HSF, read-out: Decrease of virus titer compared with control
[3] = test system: vesicular stomatitis virus; type: in vivo, NMRI mice; conditions: for Final number of surviving mice: control 37.5%
Acute toxicity in mice = type: in vivo
adenosine deaminase = adenosine deaminase (Bos taurus, UniProt P56658); experiment: Deamination of ara-A by adenosine deaminase of calf intestinal mucosa (FIG. 3, FIG. 4); type: biochemical; conditions: for Decrease in absorbance at 265 nm (extent of deamination): FIG. 3A
Method: FIG. 3 is a graphical representation showing the inhibitory effect of (S)-DHPA on deamination of ara-A by adenosine deaminase of calf intestinal mucosa. Deamination of ara-A was measured according to the method of Kalckar (compare J. Biol. Chem., 167, 461, […]), modified by Trams and Lauter (compare Biochem. J., 152, 681, 1975). The extent of deamination is equivalent to the decrease of absorbance at λ (wavelength)=265 nm. The decrease in absorbance at 265 nm was 0.11 if 50 nmol of ara-A were used, and was 0.16 if 100 nmol of ara-A were used (FIG. 3A).

vaccinia virus = type: cell-based; conditions: for Virus yield: (S)-DHPA 30 μg/ml, ara-A 3 μg/ml, or both
DNA viruses; RNA viruses = conditions: known from literature; cited from earlier work
[4] = cited from earlier work
[5] = repeated doses of 0.4 mg/mouse (about 27 mg/kg)
[6] = 1 day after infection, control 3.6
[7] = 2 days after infection, control 5.0
[8] = 3 days after infection, control 5.3

Sequence of adenosine deaminase (P56658 whole entry): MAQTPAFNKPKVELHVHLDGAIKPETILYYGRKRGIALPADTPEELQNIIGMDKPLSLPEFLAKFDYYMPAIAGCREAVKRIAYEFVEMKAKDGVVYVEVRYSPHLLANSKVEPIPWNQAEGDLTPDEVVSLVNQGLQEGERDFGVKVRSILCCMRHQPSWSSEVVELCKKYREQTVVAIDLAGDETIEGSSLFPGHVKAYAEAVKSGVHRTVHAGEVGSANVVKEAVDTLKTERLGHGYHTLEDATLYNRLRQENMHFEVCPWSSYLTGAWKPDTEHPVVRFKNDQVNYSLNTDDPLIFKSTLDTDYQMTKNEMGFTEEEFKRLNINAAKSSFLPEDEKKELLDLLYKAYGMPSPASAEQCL

Nc1ncnc2c1ncn2CC(N)C(=O)O (racemic) [9-(β-DL-alanyl)-adenine]
Antiviral activity of congeners [1]: did not demonstrate an antiviral activity

Nc1ncnc2c1ncn2CC(O)CO (racemic) [(RS)-DHPA, (RS)-9-(2,3-dihydroxypropyl)adenine]
Antiviral activity of enantiomers and racemate [1]: almost as effective as the (S)-enantiomer | Antiviral activity of enantiomers and racemate ([1]; listed as RS-form): almost as effective as the S-form | Stability in pure form (Stability): practically unlimited | Stability (thermic sterilization of neutral, weakly acid or weakly alkaline solutions possible) (Stability): remarkable stability

O=c1ccn(CCC(O)CCO)c(=O)[nH]1 (racemic) [RS-1-(3,5-dihydroxypentyl)uracil]
Antiviral activity of congeners [1]: did not demonstrate an antiviral activity

CC(O)Cn1cnc2c(N)ncnc21 (racemic) [RS-9-(2-hydroxypropyl)adenine]
Antiviral activity of congeners [1]: did not demonstrate an antiviral activity

Nc1ncnc2c1ncn2CCC(O)CO (racemic) [RS-9-(3,4-dihydroxybutyl)-adenine]
Antiviral activity of congeners [1]: did not demonstrate an antiviral activity

Nc1ncnc2c1ncn2CCC(O)CCO (racemic) [RS-9-(3,5-dihydroxypentyl)adenine]
Antiviral activity of congeners [1]: did not demonstrate an antiviral activity

Nc1ncnc2c1ncn2C[C@H](O)[C@@H](O)CO (relative stereo) [RS-threo-9-(2,3,4-trihydroxybutyl)adenine]
Antiviral activity of congeners [1]: did not demonstrate an antiviral activity

Nc1ncnc2c1ncn2C(CO)CO [2-(9-adeninyl)propane-1,3-diol]
Antiviral activity of congeners [1]: did not demonstrate an antiviral activity

NCCn1cnc2c(N)ncnc21 [9-(2-aminoethyl)adenine]
Antiviral activity of congeners [1]: did not demonstrate an antiviral activity

Nc1ncnc2c1ncn2CCO [9-(2-hydroxyethyl)adenine]
Antiviral activity of congeners [1]: did not demonstrate an antiviral activity

Nc1ncnc2c1ncn2CCCO [9-(3-hydroxypropyl)adenine]
Antiviral activity of congeners [1]: did not demonstrate an antiviral activity

Nc1ncnc2c1ncn2C[C@@H](O)CO [(R)-DHPA]
Antiviral activity of enantiomers and racemate ([1]; listed as R-enantiomeric form): not

Nc1ncnc2c1ncn2C[C@H](O)CO [(S)-DHPA, (S)-9-(2,3-dihydroxypropyl)adenine]
EC50 (Vaccinia; Skin fibroblast): 10 to 20 µg/mL (≈ 47.8 to 95.6 µM) | EC50 (Vaccinia; in Oryctolagus cuniculus): 10 to 20 µg/mL (≈ 47.8 to 95.6 µM) | EC50 (Vesicular stomatitis; HSF): 2 to 7 µg/mL (≈ 9.56 to 33.5 µM) | EC50 (Vesicular stomatitis; HeLa): > 200 µg/mL | EC50 (Vesicular stomatitis; PRK): 7 to 10 µg/mL (≈ 33.5 to 47.8 µM) | EC50 (Polio-1; HSF): > 200 µg/mL | EC50 (Polio-1; HeLa): > 200 µg/mL | EC50 (Coxsackie B-4): > 200 µg/mL | EC50 (Measles): 4 to 40 µg/mL (≈ 19.1 to 191 µM) | EC50 (Sindbis): > 200 µg/mL | log reduction at 100 µg/mL ([2]; 24 h): ~4 | log reduction at 100 µg/mL ([2]; 48 h): ~4 | Final number of surviving mice ([3]; 2 mg/mouse (about 133 mg/kg) i.p. at 1 h and 1, 2, 3, 4 days): 67% | Increase in final number of surviving mice vs control ([3]; 2 mg/mouse i.p., repeated): significant increase | Difference in number of survivors at 9 days vs control ([3]; 2 mg/mouse i.p., repeated, 9 days after infection): significant | Protection ([3]; repeated doses of 0.08 mg/mouse (about 5.4 mg/kg)): did not confer protection | Protection [3, 5]: slight protection | Final number of surviving mice [3, 5]: 55% | Survival in acute toxicity test (LD50 could not be determined) (Acute toxicity in mice; doses up to 1000 mg/kg/day for 3 to 5 days): all mice survived (without any sign of illness) | Acute toxicity (Acute toxicity in mice; general statement): very low acute toxicity | Antiviral activity of enantiomers and racemate [1]: active | Concentration dependence of inhibition of ara-A deamination (adenosine deaminase; absorbance decrease at 265 nm): inhibited proportionally to the concentration of (S)-DHPA | Inhibition of deamination of ara-A (adenosine deaminase; adenosine deaminase extracted from calf intestinal mucosa): strongly inhibited | Virus yield (vaccinia virus; [6]): 3.6 log10 PFU/ml | Virus yield (vaccinia virus; [7]): 4.9 log10 PFU/ml | Virus yield (vaccinia virus; [8]): 5.4 log10 PFU/ml | Potentiation of antiviral activity of ara-A (vaccinia virus; PRK cells, vaccinia virus): markedly potentiated the antiviral activity of ara-A | Stability in pure form (Stability): practically unlimited | Stability (thermic sterilization of neutral, weakly acid or weakly alkaline solutions possible) (Stability): remarkable stability

Cc1cn(C[C@@H](O)CO)c(=O)[nH]c1=O [R-1-(2,3-dihydroxypropyl)-thymine]
Antiviral activity of congeners [1]: did not demonstrate an antiviral activity

Cc1cn(C[C@H](O)CO)c(=O)[nH]c1=O [S-1-(2,3-dihydroxypropyl)thymine]
Antiviral activity of congeners [1]: did not demonstrate an antiviral activity

O=c1ccn(C[C@H](O)CO)c(=O)[nH]1 [S-1-(2,3-dihydroxypropyl)uracil]
Antiviral activity of congeners [1]: did not demonstrate an antiviral activity

O=c1ccn(CC[C@H](O)CO)c(=O)[nH]1 [S-1-(3,4-dihydroxybutyl)-racil]
Antiviral activity of congeners [1]: did not demonstrate an antiviral activity

Cc1c[nH]c(=O)n(C[C@H](O)CO)c1=O [S-3-(2,3-dihydroxypropyl)thymine]
Antiviral activity of congeners [1]: did not demonstrate an antiviral activity

O=c1[nH]cnc2c1ncn2C[C@H](O)CO [S-9-(2,3-dihydroxypropyl)hypoxanthine]
Antiviral activity of congeners [1]: did not demonstrate an antiviral activity

Nc1ncnc2c1ncn2CC[C@H](O)CO [S-9-(3,4-dihydroxybutyl)adenine]
Antiviral activity of congeners [1]: did not demonstrate an antiviral activity

Nc1ncnc2c1ncn2[C@@H]1O[C@H](CO)[C@@H](O)[C@@H]1O [ara-A, 9-(beta-D-arabinofuranosyl)-adenine, reference compound]
Decrease in absorbance at 265 nm (extent of deamination) (adenosine deaminase; 50 nmol of ara-A): 0.11 | Decrease in absorbance at 265 nm (extent of deamination) (adenosine deaminase; 100 nmol of ara-A): 0.16 | Virus yield (vaccinia virus; [6]): 2.1 log10 PFU/ml | Virus yield (vaccinia virus; [7]): 4.0 log10 PFU/ml | Virus yield (vaccinia virus; [8]): 5.0 log10 PFU/ml | Antiviral activity (DNA viruses; RNA viruses): marked antiviral activity but only for some DNA viruses

NC(=O)c1ncn([C@@H]2O[C@H](CO)[C@@H](O)[C@H]2O)n1 [ribavirin, (1-beta-D-ribofuranosyl)-1,2,4-triazole-3-carboxamide]
Antiviral activity (DNA viruses; RNA viruses): broad-spectrum antiviral activity | Safety margin ([4]; known from literature): rather narrow safety margin | Toxicity ([4]; known): high toxicity
